# Read-outs that look alike come from different tables or passages of the source.
# How the values were obtained:
# [1] = Mechanical stability: dry grinding, wet grinding, tableting (XRPD); type: physicochemical; settings: for crystal form of the solid (XRPD): wet grinding, and tableting
# Protocol: Dry grinding: approximately 10 mg of the starting sample was ground for 3 minutes in a mortar, and then subjected to XRPD testing.
# Wet grinding: approximately 10 mg of the starting sample was ground with 1 to 2 drops of solvent for 3 minutes in a mortar, and then subjected to XRPD testing.
# Tableting experiment: approximately 10 mg of the starting sample was compressed at 20 MPa for 3 minutes, and then subjected to XRPD testing.
# [2] = Solubility of crystal forms in buffers, biorelevant media and water (HPLC, XRPD of residual solid); type: physicochemical; settings: for pH (24 h): 5 mg/mL suspension stirred at 37°C, pH of the solution at 24 h; for Solubility at 37°C (mg/mL) 2 h: 120 min; for solubility / Solubility at 37°C (mg/mL) 24 h: 1440 min; for solubility at 2 h: read-out: Solubility at 37°C (mg/mL) 2 h
# Protocol: The solubility of the two crystal forms at 2 hours and 24 hours and the pH of the solution at 24 hours were tested. The solid was filtered, and the resulting solid was tested for XRPD.
# [3] = Hygroscopicity by dynamic vapor sorption (DVS); type: physicochemical; settings: for hygroscopic weight gain: 80% RH, 25°C; for hygroscopicity evaluation: DVS, based on weight gain at 80% RH
# Protocol: Samples are analyzed for hygroscopicity using Intrinsic DVS ([…], UK). Approximately 10 to 30 mg of sample is used for testing. The testing chamber is controlled at a temperature of 25 ± 1°C with the specific testing parameters shown below: […]
# [4] = Physicochemical stability of crystal forms (HPLC purity, XRPD); settings: for change in the crystal form after stability testing: all stability conditions
# [5] = Dry grinding, 3 minutes in a mortar, no solvent
# [6] = Tableting, 20 MPa for 3 minutes, solvent EA
# [7] = Wet grinding, solvent EtOH, 3 minutes in a mortar
# [8] = Wet grinding, solvent Water, 3 minutes in a mortar
# [9] = after grinding and tableting experiments, versus starting sample
# [10] = after wet grinding and tableting
# [11] = FeSSIF, stirring at 37°C for 24 hours
# [12] = XRPD of residual solid after stirring in FaSSIF at 37°C for 24 hours
# [13] = XRPD of residual solid after stirring in FeSSIF at 37°C for 24 hours
# [14] = XRPD of residual solid after stirring in SGF at 37°C for 24 hours
# [15] = XRPD of residual solid after stirring in Water at 37°C for 24 hours
# [16] = XRPD of residual solid after stirring in pH 1.2 buffer at 37°C for 24 hours
# [17] = XRPD of residual solid after stirring in pH 3.0 buffer at 37°C for 24 hours
# [18] = XRPD of residual solid after stirring in pH 4.5 buffer at 37°C for 24 hours
# [19] = XRPD of residual solid after stirring in pH 6.8 buffer at 37°C for 24 hours
# [20] = XRPD of residual solid after stirring in pH 7.4 buffer at 37°C for 24 hours
compound,measurement,setting,value
"COc1cc2nn(C3CC4(CCN(C(=O)C5CCN(c6ccc7c(c6)C(=O)N(C6CCC(=O)NC6=O)C7=O)CC5)CC4)C3)cc2cc1NC(=O)c1cccc(C(F)(F)F)n1 (single isomer, unassigned) [crystal form I]",Solid color,[1]; [5],"Yellow, essentially no change"
same,XRPD results,[1]; [5],Crystal form I (low degree of crystallinity)
same,Solid color,[1]; [6],"Yellow, essentially no change"
same,XRPD results,[1]; [6],Crystal form I
same,Solid color,[1]; [7],"Yellow, essentially no change"
same,XRPD results,[1]; [7],Crystal form I
same,Solid color,[1]; [8],"Yellow, essentially no change"
same,XRPD results,[1]; [8],Crystal form I
same,degree of crystallinity of the solid,[1]; after dry grinding,reduction in the degree of crystallinity
same,crystal form of the solid (XRPD),[1]; after dry grinding,no change in the crystal form
same,Solid color,[1]; [9],essentially no change in the solid color
same,degree of crystallinity of the solid,[1]; [10],almost no change in the degree of crystallinity
same,pH (24 h),[2]; FaSSIF,6.501
same,Solubility at 37°C (mg/mL) 2 h,"[2]; FaSSIF, 37°C",0.00141 mg/mL
same,solubility,[2]; [11],approximately 0.01 mg/mL
same,pH (24 h),[2]; FeSSIF,5.085
same,Solubility at 37°C (mg/mL) 24 h,"[2]; FeSSIF, 37°C, 24 h",0.01099 mg/mL
same,pH (24 h),[2]; SGF,1.266
same,pH (24 h),[2]; Water,6.749
same,Solubility at 37°C (mg/mL) 2 h,"[2]; Water, 37°C",0.00089 mg/mL
same,Solubility at 37°C (mg/mL) 24 h,"[2]; Water, 37°C, 24 h",0.00025 mg/mL
same,Crystal form,[2]; [12],Crystal form I
same,Crystal form,[2]; [13],Crystal form I
same,Crystal form,[2]; [14],Crystal form I
same,Crystal form,[2]; [15],Crystal form I
same,Crystal form,[2]; [16],Crystal form I
same,Crystal form,[2]; [17],Crystal form I
same,Crystal form,[2]; [18],Crystal form I
same,Crystal form,[2]; [19],Crystal form I
same,Crystal form,[2]; [20],Crystal form I
same,solubility at 2 h,"[2]; buffer, pH 1.2, pH 1.2 buffer, 37°C",0.00084 mg/mL
same,solubility at 24 h,"[2]; buffer, pH 1.2, pH 1.2 buffer, 37°C, 24 h, read-out: Solubility at 37°C (mg/mL) 24 h",0.00081 mg/mL
same,solubility at 2 h,"[2]; buffer, pH 3, pH 3.0 buffer, 37°C",0.00048 mg/mL
same,solubility at 24 h,"[2]; buffer, pH 3, pH 3.0 buffer, 37°C, 24 h, read-out: Solubility at 37°C (mg/mL) 24 h",0.00077 mg/mL
same,solubility at 2 h,"[2]; buffer, pH 4.5, pH 4.5 buffer, 37°C",0.00019 mg/mL
same,solubility at 24 h,"[2]; buffer, pH 4.5, pH 4.5 buffer, 37°C, 24 h, read-out: Solubility at 37°C (mg/mL) 24 h",0.00087 mg/mL
same,solubility at 2 h,"[2]; buffer, pH 6.8, pH 6.8 buffer, 37°C",0.00046 mg/mL
same,solubility at 24 h,"[2]; buffer, pH 6.8, pH 6.8 buffer, 37°C, 24 h, read-out: Solubility at 37°C (mg/mL) 24 h",0.00084 mg/mL
same,solubility at 2 h,"[2]; buffer, pH 7.4, pH 7.4 buffer, 37°C",0.00101 mg/mL
same,solubility at 24 h,"[2]; buffer, pH 7.4, pH 7.4 buffer, 37°C, 24 h, read-out: Solubility at 37°C (mg/mL) 24 h",0.00079 mg/mL
same,solubility at 24 h,"[2]; fassif, 37°C, 24 h, read-out: Solubility at 37°C (mg/mL) 24 h",0.00148 mg/mL
same,solubility at 2 h,"[2]; fessif, 37°C",0.004 mg/mL
same,pH (24 h),[2]; pH 1.2 buffer,1.234
same,pH (24 h),[2]; pH 3.0 buffer,3.145
same,pH (24 h),[2]; pH 4.5 buffer,4.583
same,pH (24 h),[2]; pH 6.8 buffer,6.805
same,pH (24 h),[2]; pH 7.4 buffer,7.439
same,solubility at 2 h,"[2]; sgf, 37°C",0.00158 mg/mL
same,solubility at 24 h,"[2]; sgf, 37°C, 24 h, read-out: Solubility at 37°C (mg/mL) 24 h",0.00376 mg/mL
same,hygroscopic weight gain,[3],0.3629%
same,hygroscopicity evaluation,[3],slightly hygroscopic
same,crystal form after DVS testing,[3],no change in the crystal form
same,Purity (%),"[4]; 25°C/60% RH, open, 1 week",98.96%
same,XRPD,"[4]; 25°C/60% RH, open, 1 week",Unchanged
same,Purity (%),"[4]; 40°C/75% RH, open, 1 week",98.96%
same,XRPD,"[4]; 40°C/75% RH, open, 1 week",Unchanged
same,Purity (%),"[4]; 60°C, closed, 1 week",98.80%
same,XRPD,"[4]; 60°C, closed, 1 week",Unchanged
same,Purity (%),[4]; Initial,98.97%
same,Purity (%),"[4]; Light, closed, 10 days",98.96%
same,XRPD,"[4]; Light, closed, 10 days",Unchanged
same,Purity (%),"[4]; Light, control, 10 days",98.97%
same,XRPD,"[4]; Light, control, 10 days",Unchanged
same,change in the crystal form after stability testing,[4],no change in the crystal form
same,degradation,[4]; closed stability chamber at 60°C for 1 week,0.17%
same,degradation,"[4]; other stability conditions (25°C/60% RH, 40°C/75% RH 1 week; light 10 days)",no significant degradation
"COc1cc2nn(C3CC4(CCN(C(=O)C5CCN(c6ccc7c(c6)C(=O)N(C6CCC(=O)NC6=O)C7=O)CC5)CC4)C3)cc2cc1NC(=O)c1cccc(C(F)(F)F)n1 (single isomer, unassigned) [crystal form A]",Solid color,[1]; [5],"Slightly deepened, yellow"
same,XRPD results,[1]; [5],Crystal form A (low degree of crystallinity)
same,Solid color,[1]; [6],"Slightly deepened, yellow"
same,XRPD results,[1]; [6],Crystal form A
same,Solid color,[1]; [7],"Slightly deepened, yellow"
same,XRPD results,[1]; [7],Crystal form A
same,Solid color,[1]; [8],"Slightly deepened, yellow"
same,XRPD results,[1]; [8],Crystal form A
same,degree of crystallinity of the solid,[1]; after dry grinding,reduction in the degree of crystallinity
same,crystal form of the solid (XRPD),[1]; after dry grinding,no change in the crystal form
same,Solid color,[1]; [9],slightly darker
same,degree of crystallinity of the solid,[1]; [10],almost no change in the degree of crystallinity
same,pH (24 h),[2]; FaSSIF,6.570
same,Solubility at 37°C (mg/mL) 2 h,"[2]; FaSSIF, 37°C",0.00461 mg/mL
same,Solubility at 37°C (mg/mL) 24 h,"[2]; FaSSIF, 37°C, 24 h",0.00285 mg/mL
same,solubility,[2]; [11],approximately 0.004 mg/mL
same,pH (24 h),[2]; FeSSIF,5.032
same,Solubility at 37°C (mg/mL) 2 h,"[2]; FeSSIF, 37°C",0.00391 mg/mL
same,Solubility at 37°C (mg/mL) 24 h,"[2]; FeSSIF, 37°C, 24 h",0.00414 mg/mL
same,pH (24 h),[2]; SGF,1.225
same,pH (24 h),[2]; Water,7.311
same,Solubility at 37°C (mg/mL) 24 h,"[2]; Water, 37°C, 24 h",0.00075 mg/mL
same,Crystal form,[2]; [12],Crystal form A
same,Crystal form,[2]; [13],Crystal form A
same,Crystal form,[2]; [14],Crystal form A
same,Crystal form,[2]; [15],Crystal form A
same,Crystal form,[2]; [16],Crystal form A
same,Crystal form,[2]; [17],Crystal form A
same,Crystal form,[2]; [18],Crystal form A
same,Crystal form,[2]; [19],Crystal form A
same,Crystal form,[2]; [20],Crystal form A
same,solubility at 24 h,"[2]; fassif, stirring at 37°C for 24 hours, read-out: solubility",~0.004 mg/mL
same,pH (24 h),[2]; pH 1.2 buffer,1.214
same,pH (24 h),[2]; pH 3.0 buffer,3.078
same,pH (24 h),[2]; pH 4.5 buffer,4.584
same,Solubility at 37°C (mg/mL) 2 h,"[2]; pH 4.5 buffer, 37°C",0.00026 mg/mL
same,pH (24 h),[2]; pH 6.8 buffer,6.833
same,pH (24 h),[2]; pH 7.4 buffer,7.428
same,solubility at 2 h,"[2]; water, 37°C",0.00052 mg/mL
same,hygroscopic weight gain,[3],2.213%
same,hygroscopicity evaluation,[3],hygroscopic
same,crystal form after DVS testing,[3],no change in the crystal form
same,Purity (%),"[4]; 25°C/60% RH, open, 1 week",96.38%
same,XRPD,"[4]; 25°C/60% RH, open, 1 week",Unchanged
same,Purity (%),"[4]; 40°C/75% RH, open, 1 week",96.39%
same,XRPD,"[4]; 40°C/75% RH, open, 1 week",Unchanged
same,Purity (%),"[4]; 60°C, closed, 1 week",96.40%
same,XRPD,"[4]; 60°C, closed, 1 week",Unchanged
same,Purity (%),[4]; Initial,96.41%
same,XRPD,[4]; Initial,Crystal form A
same,Purity (%),"[4]; Light, closed, 10 days",96.41%
same,XRPD,"[4]; Light, closed, 10 days",Unchanged
same,Purity (%),"[4]; Light, control, 10 days",96.42%
same,XRPD,"[4]; Light, control, 10 days",Unchanged
same,change in the crystal form after stability testing,[4],no change in the crystal form
same,degradation,"[4]; all stability conditions (60°C, 25°C/60% RH, 40°C/75% RH 1 week; light 10 days)",no significant degradation
